Measurements as given in patent publication US9133142B2, “Salts or co-crystals of 3-(3-dimethylamino-1-ethyl-2-methyl-propyl)-phenol” (Gruenenthal GmbH, priority 2010, dated 2015).
Where a name gives a salt, the structure may show the parent alone.

Tests used:
[1] = Thermogravimetric analysis (TGA) of salts or cocrystals; assay type: physicochemical; conditions: for TGA no weight loss up to: nitrogen flow, heating rate of 10° C./min
Method: Thermogravimetric investigations were performed with a Mettler-Toledo TGA/SDTA851.
Unless otherwise specified, the samples were weighed in a aluminium crucible and measured in nitrogen flow. Generally TGA investigations were performed in a temperature range of 25 to about 200° C. or resp. 350° C. with a heating rate of 10° C./min.

[2] = biological target: recombinantly produced μ-opioid receptor (Homo sapiens, UniProt P35372); conditions: relative to morphine; cited from earlier work
Sequence of recombinantly produced μ-opioid receptor (P35372 whole entry): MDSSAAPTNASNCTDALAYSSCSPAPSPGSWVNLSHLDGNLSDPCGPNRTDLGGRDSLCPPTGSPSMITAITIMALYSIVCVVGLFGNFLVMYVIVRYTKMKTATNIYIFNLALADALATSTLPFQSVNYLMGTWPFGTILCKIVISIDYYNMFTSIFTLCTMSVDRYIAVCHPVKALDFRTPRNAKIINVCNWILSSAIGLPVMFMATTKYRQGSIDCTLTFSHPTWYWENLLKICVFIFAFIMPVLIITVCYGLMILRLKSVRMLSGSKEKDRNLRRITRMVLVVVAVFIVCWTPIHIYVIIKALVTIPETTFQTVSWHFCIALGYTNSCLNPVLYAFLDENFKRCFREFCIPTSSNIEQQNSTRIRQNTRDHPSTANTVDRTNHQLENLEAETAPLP

[3] = clinical studies; cited from earlier work
[4] = cited from earlier work

Compound: Salt or Cocrystal of Nitric Acid and Tapentadol [Example H-1]
- TGA no weight loss up to [1]: to 170 °C

Compound: CC[C@@H](c1cccc(O)c1)[C@@H](C)CN(C)C [tapentadol, (1R,2R)-3-(3-dimethylamino-1-ethyl-2-methyl-propyl)-phenol]
- affinity to the recombinantly produced μ-opioid receptor, times less than that of morphine [2]: 18 times
- pain-alleviating action relative to morphine [3]: two to three times less

Compound: CC[C@@H](c1cccc(O)c1)[C@@H](C)CN(C)C.O=C(O)c1cccnc1 [Example b2-1b, Salt or Cocrystal of Tapentadol and Nicotinic Acid]
- weight loss (TGA) ([1]; range: 27 to 171° C.): −5.9%

Compound: CC[C@@H](c1cccc(O)c1)[C@@H](C)CN(C)C.O=C(O)c1ccc2ccccc2c1O [Example C-1, Salt or Cocrystal of 1-hydroxy-2-naphthoic Acid and Tapentadol]
- TGA no weight loss up to [1]: to 125 °C
- TGA no weight loss up to ([1]; listed as C-2): to 130 °C

Compound: CCC(c1cccc(O)c1)C(C)CN(C)C.O=C(O)CC(=O)O (centres unmarked) [Example E-1, Salt or Cocrystal of Malonic Acid and Tapentadol]
- TGA no weight loss up to [1]: to 115 °C

Compound: CC[C@@H](c1cccc(O)c1)[C@@H](C)CN(C)C.CC[C@@H](c1cccc(O)c1)[C@@H](C)CN(C)C.O=C(O)/C=C/C(=O)O [Example I-1, Hemi Salt or Hemi Cocrystal of Fumaric Acid and Tapentadol]
- TGA no weight loss up to [1]: to 131 °C
- TGA no weight loss up to ([1]; listed as I-2): to 130 °C
- TGA no weight loss up to ([1]; listed as I-3): to 130 °C

Compound: CC[C@@H](c1cccc(O)c1)[C@@H](C)CN(C)C.O=C(O)c1cccnc1 [Example b2-1c, Salt or Cocrystal of Tapentadol and Nicotinic Acid]
- TG weight change ([1]; 29.76-135.97° C.): −0.19%
- weight loss (TGA) ([1]; range: 25 to 148° C.): < 0.3%

Compound: CC[C@@H](c1cccc(O)c1)[C@@H](C)CN(C)C [hydrogen chloride salt of 3-(3-dimethylamino-1-ethyl-2-methyl-propyl)-phenol]
- solubility in water and aqueous media [4]: high solubility

Compound: Salt or Cocrystal of Embonic Acid and Tapentadol [Example D-2]
- TGA no weight loss up to [1]: to 170 °C
- TGA no weight loss up to ([1]; listed as D-3): to 160 °C

Compound: Salt or Cocrystal of Tapentadol and Embonic Acid [b1-4-3]
- weight loss (TGA) ([1]; range 31 to 171° C.): < 0.1%

Compound: CCC(c1cccc(O)c1)C(C)CN(C)C.O=C1NS(=O)(=O)c2ccccc21 (centres unmarked) [Example J-1, Salt or Cocrystal of Saccharin and Tapentadol]
- TGA no weight loss up to [1]: to 105 °C

Compound: CC[C@@H](c1cccc(O)c1)[C@@H](C)CN(C)C.O=C(O)c1cccnc1 [Example G-2, Salt or Cocrystal of Nicotinic Acid and Tapentadol]
- TGA no weight loss up to [1]: to 135 °C
- TGA no weight loss up to ([1]; listed as G-3): to 150 °C

Compound: CC[C@@H](c1cccc(O)c1)[C@@H](C)CN(C)C.O=C(O)c1cccnc1 [Example G-1, Salt or Cocrystal of Nicotinic Acid and Tapentadol]
- TGA weight loss ([1]; 28° C.-171° C.): −6.4%

Compound: CC[C@@H](c1cccc(O)c1)[C@@H](C)CN(C)C [Example F-1, Salt or Cocrystal of Hydrobromic Acid and Tapentadol]
- TGA no weight loss up to [1]: to 195 °C

Compound: CC[C@@H](c1cccc(O)c1)[C@@H](C)CN(C)C.CC[C@@H](c1cccc(O)c1)[C@@H](C)CN(C)C.O=C(O[C@H](C(=O)O)[C@H](OC(=O)c1ccccc1)C(=O)O)c1ccccc1 [Example A-1, Hemi Salt or Hemi Cocrystal of (2S,3S)-Di-benzoyl Tartaric Acid and Tapentadol]
- TGA no weight loss up to [1]: to 140 °C
- TGA no weight loss up to ([1]; listed as A-2): to 160 °C
- TGA no weight loss up to ([1]; listed as A-3): to 160 °C

Compound: Salt or Cocrystal of Embonic Acid and Tapentadol [Example D-1]
- TGA weight loss ([1]; 90° C.-157° C.): −7.1%

Compound: CC[C@@H](c1cccc(O)c1)[C@@H](C)CN(C)C.O=C(O)CCCCCCCCC(=O)O [Example B-1, Salt or Cocrystal of Sebacid Acid and Tapentadol]
- TGA no weight loss up to [1]: to 140 °C
- TGA no weight loss up to ([1]; listed as B-2): to 105 °C
- TGA no weight loss up to ([1]; listed as B-3): to 145 °C

Compound: Salt or Cocrystal of Tapentadol and Embonic Acid [b1-4-4]
- weight loss (TGA) ([1]; range 53 to 167° C.): −5.7%
